The values that follow come from patent US8222218B2, “Cyclopropanated carbohydrates” (Seton Hall University, priority 2008, dated 2012).

Read-outs that look alike come from different tables or passages of the source.

One data set concerns MES-induced seizures. The data set is described as follows: Maximal Electroshock Seizure (MES) test, rats. The format is in vivo. The settings on record: rat, p.o., 30 mg/kg. The method, then:
(§1) Toxicity was measured using the minimal motor impairment test described below.
(§2) The MES test is a model for generalized tonic-clonic seizures. The seizures are highly reproducible and electrophysiologically consistent with human seizures. The test provides information about a compound's ability to prevent the spread of seizure when all neuronal circuits of the brain are maximally active. 60 Hz of alternating current (50 mA in mice, 150 mA in rats) is applied for 2 seconds via corneal electrodes that have been treated with an electrolyte solution containing an anesthetic (0.5% tetracaine HCl). Mice are tested at a variety of intervals after an i.p. injection of […] solution of the test compound (commonly in a 0.5% solution of methylcellulose) at 30, 100, and 300 mg/kg doses. Rats are examined after a 30 mg/kg (per os, p.o.) dose that is applied in a volume of 0.04 mL/g. An animal is considered “protected” from MES-induced seizures upon removal of the hind limb extensor component of the seizure.
(§3) Male and female albino CF1 mice (18-25 g, Charles River, Portage, Mich.) and male albino Sprague-Dawley rats (275-300 g, kindling test; 100-150 g all other tests; Charles River, Raleigh, N.C.) were used as experimental animals.

The subject of data set [1] is metrazole-induced clonic seizures. Nature of the data set: Subcutaneous Metrazole Seizure Threshold Test (scMET), mice. The format is in vivo. The settings on record: Mus musculus, sc, mice. The procedure, abridged:
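CF1 mice dosed with test compound at 30, 100 and 300 mg/kg; Sprague-Dawley rats at 50 mg/kg p.o. At compound TPE, metrazole at CD97 (85 mg/kg in mice) injected s.c. in the neck. Animals observed 30 min; endpoint is a 3-5 s clonic spasm episode.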

Data set [2] shares this test system. Nature of the data set: Subcutaneous Metrazole Seizure Threshold Test (scMET), rats. The format is in vivo. The settings on record: rat, row printed as 300, 0.4 h.
Data set [3] in a line: Acute toxicity, minimal motor impairment (ataxia), rats. The class given is in vivo. The settings on record: rat, 30 mg/kg. As for the experimental part: as §1
Animals are monitored for overt signs of impaired neurological or muscular function to assess a compound's toxicity. In mice, the rotorod procedure is used to disclose minimal muscular or neurological impairment. When a mouse is placed on a rotating rod (6 rpm), the animal can maintain its equilibrium for long periods of time. The animal is considered toxic if it falls off the rotating rod three times during a 1 minute period. In rats, minimal motor deficit is indicated by ataxia, which is manifested by an abnormal, uncoordinated gait. Rats used for toxicity evaluation are examined before the test drug is given as individual animals may have peculiarities in gait, equilibrium, and pacing response which must be distinguished from potential effects of the test substance.
as §3

In data set [4] the target is T1, cloned, human D1 receptor (Homo sapiens, UniProt P21728).
T1 construct: expressed in transfected cells
Nature of the data set: Radioligand competition binding assay, [3H]SCH23390. The text has this:
Receptor binding profiles were provided by the National Institute of Mental Health's Psychoactive Drug Screening Program, Contract # N01 MH32004 (NIMH PDSP) The NIMH PDSP is directed by Bryan L. Roth M. D., Ph.D. at the University of North Carolina at Chapel Hill and Project Officer Jamie Driscol at NIMH, Bethesda Md., USA. Protocols for receptor-based assays by the PDSP may be found on the website: http://pdsp.med.unc.edu/pdspw/binding.php and http://pdsp.med.unc.edu/pdspw/function.php (Apr. 30, 2008).
Radioligand competition binding assays were performed as previously described (Rothman, R. B., Baumann, M. H., Savage, J. E., Rauser, L., McBride, Hufeisen, S. J., Roth B. L. Circulation (2000) 102:2836-2841) for Compounds 7 and 16. Briefly, test compounds were dissolved to 10 mM in 100% DMSO, then diluted to the desired concentrations (spanning seven orders of magnitude) in Dopamine Binding Buffer (50 mM NaCl, 50 mM HEPES, 5 mM MgCl2, 0.5 mM EDTA, pH 7.4). Diluted test and reference compounds were added to wells containing radioligand ([^3H]SCH23390, 0.3 nM final concentration) and buffer, then membrane fractions from cells stably expressing cloned, human D1 or D5 receptors were added and binding was allowed to equilibrate at room temperature for 1.5 hours. At equilibrium, reactions were filtered (using a FilterMate 96-well harvester, PerkinElmer) onto GF-A glass fiber filters (Wallac) and allowed to dry. Meltilex scintillant (Wallac) was melted onto the dry filters, and then allowed to cool. Filters were then sealed in plastic bags and counted on a Wallac TriLux microbeta counter.
Raw data (dpm) representing total radioligand binding (i.e., specific+non-specific binding) were plotted as a function of the logarithm of the molar concentration of the competitor (i.e., test or reference compound). Non-linear regression of the normalized (i.e., percent radioligand binding compared to that observed in the absence of test or reference compound) raw data is performed in Prism 4.0 (GraphPad Software) using the built-in three parameter logistic model describing ligand competition binding to radioligand-labeled sites: y=bottom+[(top−bottom)/(1+10^x−logIC50)] where bottom equals the residual radioligand binding measured in the presence of 10 μM reference compound (i.e., non-specific binding) and top equals the total radioligand binding observed in the absence of competitor. The log IC50 (i.e., the log of the ligand concentration that reduces radioligand binding by 50%) is thus estimated from the data and used to obtain the Ki by applying the Cheng-Prusoff approximation: Ki=IC50/(1+[ligand]/KD) where [ligand] equals the assay radioligand concentration and KD equals the affinity constant of the radioligand for the target receptor.

The next data set deals with seizures. Nature of the data set: In vivo anticonvulsant screening (MES, scMET, minimal clonic seizure), summary in words. The settings on record: summary of Table 2. Also noted: species or system rat, mouse. As for the experimental part: as §1, §2
The subcutaneous injection of metrazole, which is a convulsant, produces clonic seizures in laboratory animals. The scMET test is designed to identify compounds that raise the seizure threshold of an animal. Mice are pretreated with test compound at 30, 100, and 300 mg/kg doses in a similar manner to the MES test. Rats are treated with a 50 mg/kg dose (p.o.). At the previously determined TPE of the test compound, the dose of metrazole that will induce convulsions in 97% of animals (CD97: 85 mg/kg mice) is injected into the loose fold of the skin in the midline of the neck. The animals are placed in isolation cages to minimize stress and observed for the next 30 minutes for the presence or absence of seizures. An episode of clonic spasms (approximately 3-5 seconds) of the fore and/or hindlimbs, jaws or vibrissae is taken as the endpoint.
The minimal clonic seizure (6 Hz) test, like the MES test, is used to assess a compound's ability to protect against electrically-induced seizures. The minimal clonic (6 Hz) seizure test uses a lower frequency (6 Hz) and a longer duration of stimulation (3 seconds) than the MES test. Test compounds are pre-administered to mice via i.p. injection. At varying times, individual mice (four per time point) are challenged with sufficient current via corneal electrodes to elicit a psychomotor seizure in 97% of animals (32 mA for 3 second). Untreated mice will display seizure characterized by a minimal clonic phase followed by stereotyped, automatistic behaviors described originally as being similar to the aura of human patients with partial seizures. Animals not displaying this behavior are considered to be protected.

T1 sequence (P21728 whole entry): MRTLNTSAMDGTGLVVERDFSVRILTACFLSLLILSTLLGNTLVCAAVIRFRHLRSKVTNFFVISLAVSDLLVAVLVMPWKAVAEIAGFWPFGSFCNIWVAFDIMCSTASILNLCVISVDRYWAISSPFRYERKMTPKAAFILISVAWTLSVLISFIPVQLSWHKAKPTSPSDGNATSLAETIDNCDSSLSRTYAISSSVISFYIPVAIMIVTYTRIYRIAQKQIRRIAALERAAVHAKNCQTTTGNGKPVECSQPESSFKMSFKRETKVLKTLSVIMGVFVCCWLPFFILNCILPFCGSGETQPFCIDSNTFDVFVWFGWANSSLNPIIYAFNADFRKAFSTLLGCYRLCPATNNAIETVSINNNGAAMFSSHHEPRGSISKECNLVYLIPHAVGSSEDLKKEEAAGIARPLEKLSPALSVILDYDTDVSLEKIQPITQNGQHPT

Turning to `CCOC(=O)C1[C@@H]2[C@@H](O)[C@@H]3O[C@H](c4ccc(OC)cc4)OC[C@H]3O[C@H]12` (stereo partly drawn) [Compound 16, ethyl (2R,4aR,5aS,6aR,7R,7aS)-7-hydroxy-2-(4-methoxyphenyl)hexahydro-4H-cyclopropa[5,6]pyrano[3,2-d][1,3]dioxine-6-carboxylate], in the data set with MES-induced seizures (0.5 h), the “MES 30 0.5 h (animals protected/tested)” value was 0/4. In addition, the “MES 30 4 h (animals protected/tested)” value in the data set on MES-induced seizures (4 h) was 1/4. For the same compound, the responders at 30 mg/kg in data set [1] (0.4 h, read-out: scMET 30 0.4 h (animals protected/tested)) is 0%; in data set [1] (0.5 h, read-out: scMET 30 0.5 h (animals protected/tested)), 0%. Further, the responders at 100 mg/kg in data set [1] (0.4 h, read-out: scMET 100 0.4 h (animals protected/tested)) was 0%; in data set [1] (0.5 h, read-out: scMET 100 0.5 h (animals protected/tested)) it was 0%. Also, the responders at 300 mg/kg came out at 0% in data set [1] (0.4 h, read-out: scMET 300 0.4 h (animals protected/tested)) and 0% in data set [1] (0.5 h, read-out: scMET 300 0.5 h (animals protected/tested)). For the same compound, in data set [2], the “scMET 300 0.4 h (animals protected/tested)” value was 0/4. For the same compound, the “TOX 30 4 h (animals toxic/tested)” value in data set [3] was 0/4. The inhibition constant Ki in data set [4] (D1 dopamine receptor, [3H]SCH23390 0.3 nM, Cheng-Prusoff) is 4.74 µM. In addition, the “inhibition of the D1 dopamine receptor” value in data set [4] (radioligand competition binding) was “significant inhibition”. Moreover, in the data set with seizures, the “anticonvulsant activity” value is “anticonvulsant activity”.
